A value given as a limit tells only on which side of the number the result lay.

Common to all, as to format: cell-based
One experiment concerns Botrytis cinerea. In words: Botrytis cinerea (gray mold) in vitro test, radial growth on Potato Dextrose Agar. The note with it: 168 h, 300 ppm, seven days, 22° C., read-out: % (control) compared to the untreated check (radial growth).
The subject of another experiment is Colletotrichum capsici. Description: Colletotrichum capsici (anthracnose) in vitro test, radial growth on Potato Dextrose Agar. The note with it: Colletotrichum truncatum, 168 h; 300 ppm; seven days, 25° C.; read-out: % control compared to the untreated check (radial growth).
Another experiment relates to Rhizoctonia solani. In words: Rhizoctonia solani (rice sheath blight/potato black scurf) in vitro test, radial growth on Potato Dextrose Agar. The following applies: 168 h, 300 ppm, seven days, 25° C., read-out: % control compared to the untreated check (radial growth).
Another experiment concerns Pyricularia oryzae. In words: microbe, parasite or virus in culture. The following applies: 168 h, read-out: % control compared to the untreated check (radial growth).
In another experiment the test system is Septoria lycopersici. In words: Septoria lycopersici (leaf spot of tomato) in vitro test, radial growth on Potato Dextrose Agar. The note with it: 168 h, seven days, 25° C., read-out: % control compared to the untreated check (radial growth).
The next experiment relates to Fusarium culmorum. Description: Fusarium culmorum (foot rot of cereals) in vitro test, radial growth on Potato Dextrose Agar. The following applies: Fusarium culmorum, 168 h, read-out: % control compared to the untreated check (radial growth).
Another experiment has as its system Alternaria solani. Description: Alternaria solani (early blight of tomato/potato) in vitro test, radial growth on Potato Dextrose Agar. The following applies: 168 h, 300 ppm, seven days, 25° C., read-out: % control compared to the untreated check (radial growth).

Turning to `CCN(C)C=Nc1cc(C)c(Cc2cc(C)cc(C)c2)cc1C` [Compound 114, N′-(4-(3,5-dimethylbenzyl)-2,5-dimethylphenyl)-N-ethyl-N-methylformimidamide], the inhibition of growth at 300 ppm was greater than 80% in the experiment with Botrytis cinerea; greater than 80% in the experiment on Colletotrichum capsici; greater than 80% in the experiment on Rhizoctonia solani; greater than 75% in the experiment on Pyricularia oryzae; greater than 70% in the experiment on Septoria lycopersici; 75% in the experiment on Fusarium culmorum. The inhibition of growth at 300 ppm in the experiment on Alternaria solani was greater than 75%.

On to `CCN(C)C=Nc1cc(F)c(Cc2cccc(C)c2)cc1C` [Compound 171, N-ethyl-N′-(5-fluoro-2-methyl-4-(3-methylbenzyl)phenyl)-N-methylformimidamide], for which the inhibition of growth at 300 ppm was greater than 80% with Botrytis cinerea; greater than 80% with Colletotrichum capsici; greater than 80% in the experiment with Rhizoctonia solani; greater than 75% in the experiment with Pyricularia oryzae; greater than 70% in the experiment on Septoria lycopersici; 75% in the experiment with Fusarium culmorum. For the same compound, the inhibition of growth at 300 ppm in the experiment on Alternaria solani is greater than 75%.

In the case of `CCN(C)C=Nc1cc(Cl)c(Cc2ccccc2F)cc1C` [Compound 256, N′-(5-chloro-4-(2-fluorobenzyl)-2-methylphenyl)-N-ethyl-N-methylformimidamide], the inhibition of growth at 300 ppm in the experiment with Botrytis cinerea is greater than 80%; in the experiment on Colletotrichum capsici it was greater than 80%; in the experiment with Rhizoctonia solani it was greater than 80%; with Pyricularia oryzae, greater than 75%; in the experiment on Septoria lycopersici, greater than 70%; with Fusarium culmorum, 75%. For the same compound, in the experiment with Alternaria solani, the inhibition of growth at 300 ppm was greater than 75%.

For `CCN(C)C=Nc1cc(C)c(Cc2cccc(C#N)c2)cc1C` [Compound 47, N′-(4-(3-cyanobenzyl)-2,5-dimethylphenyl)-N-ethyl-N-methylformimidamide], the inhibition of growth at 300 ppm is greater than 80% in the experiment on Botrytis cinerea; greater than 80% in the experiment with Colletotrichum capsici; greater than 80% in the experiment on Rhizoctonia solani; greater than 75% in the experiment on Pyricularia oryzae; greater than 70% with Septoria lycopersici; 75% in the experiment on Fusarium culmorum. Besides, the inhibition of growth at 300 ppm in the experiment on Alternaria solani is greater than 75%.

In the case of `CCN(C)C=Nc1cc(C)c(Cc2ccc(F)c(C)c2)cc1C` [Compound 109, N-ethyl-N′-(4-(4-fluoro-3-methylbenzyl)-2,5-dimethylphenyl)-N-methylformimidamide], the inhibition of growth at 300 ppm in the experiment with Botrytis cinerea was greater than 80%; with Colletotrichum capsici, greater than 80%; in the experiment on Rhizoctonia solani, greater than 80%; in the experiment with Pyricularia oryzae, greater than 75%; with Septoria lycopersici, greater than 70%; in the experiment on Fusarium culmorum it was 75%. In addition, the inhibition of growth at 300 ppm with Alternaria solani was greater than 75%.

Regarding `CCN(C)C=Nc1cc(C)c(Cc2cccc(C(F)(F)F)c2)cc1C` [Compound 46, N′-(2,5-dimethyl-4-(3-(trifluoromethyl)benzyl)phenyl)-N-ethyl-N-methylformimidamide], the inhibition of growth at 300 ppm with Botrytis cinerea was greater than 80%; in the experiment on Colletotrichum capsici, greater than 80%; in the experiment on Rhizoctonia solani it was greater than 80%; in the experiment on Pyricularia oryzae, greater than 75%; in the experiment with Septoria lycopersici, greater than 70%; with Fusarium culmorum, 75%. In the experiment on Alternaria solani, the inhibition of growth at 300 ppm is greater than 75%.

As to `CCN(C)C=Nc1cc(C)c(Cc2ccc(OC(F)(F)F)cc2)cc1C` [Compound 117, N′-(2,5-dimethyl-4-(4-(trifluoromethoxy)benzyl)phenyl)-N-ethyl-N-methylformimidamide], the inhibition of growth at 300 ppm was greater than 80% in the experiment on Botrytis cinerea; greater than 80% in the experiment with Colletotrichum capsici; greater than 80% with Rhizoctonia solani; greater than 75% with Pyricularia oryzae; greater than 70% in the experiment on Septoria lycopersici; 75% with Fusarium culmorum. Further, in the experiment on Alternaria solani, the inhibition of growth at 300 ppm is greater than 75%.

`CCN(C)C=Nc1cc(C)c(Cc2ccc(Cl)cc2Cl)cc1C` [Compound 162, N′-(4-(2,4-dichlorobenzyl)-2,5-dimethylphenyl)-N-ethyl-N-methylformimidamide]: the inhibition of growth at 300 ppm was greater than 80% in the experiment on Botrytis cinerea; greater than 80% in the experiment on Colletotrichum capsici; greater than 80% in the experiment with Rhizoctonia solani; greater than 75% with Pyricularia oryzae; greater than 70% in the experiment with Septoria lycopersici; 75% in the experiment on Fusarium culmorum. Besides, in the experiment on Alternaria solani, the inhibition of growth at 300 ppm is greater than 75%.

In the case of `CCN(C)C=Nc1cc(C)c(Cc2cccc(C)c2)cc1C1CC1` [Compound 198, N′-(2-cyclopropyl-5-methyl-4-(3-methylbenzyl)phenyl)-N-ethyl-N-methylformimidamide], the inhibition of growth at 300 ppm was greater than 80% with Botrytis cinerea; greater than 80% in the experiment with Colletotrichum capsici; greater than 80% in the experiment with Rhizoctonia solani; greater than 75% in the experiment on Pyricularia oryzae; greater than 70% in the experiment on Septoria lycopersici; 75% in the experiment on Fusarium culmorum. The inhibition of growth at 300 ppm in the experiment on Alternaria solani is greater than 75%.

On to `CCN(C)C=Nc1cc(C(F)(F)F)c(Cc2ccc(C)cc2)cc1F` [Compound 225, N-ethyl-N′-(2-fluoro-4-(4-methylbenzyl)-5-(trifluoromethyl)phenyl)-N-methylformimidamide], for which the inhibition of growth at 300 ppm was greater than 80% in the experiment with Botrytis cinerea; greater than 80% in the experiment on Colletotrichum capsici; greater than 80% in the experiment on Rhizoctonia solani; greater than 75% with Pyricularia oryzae; greater than 70% in the experiment on Septoria lycopersici; 75% in the experiment with Fusarium culmorum. The inhibition of growth at 300 ppm in the experiment with Alternaria solani was greater than 75%.

On to `CCN(C)C=Nc1cc(C#N)c(Cc2cccc(Cl)c2)cc1C` [Compound 249, N′-(4-(3-chlorobenzyl)-5-cyano-2-methylphenyl)-N-ethyl-N-methylformimidamide], for which the inhibition of growth at 300 ppm is greater than 80% in the experiment on Botrytis cinerea; greater than 80% in the experiment on Colletotrichum capsici; greater than 80% in the experiment with Rhizoctonia solani; greater than 75% with Pyricularia oryzae; greater than 70% in the experiment on Septoria lycopersici; 75% with Fusarium culmorum. In the experiment on Alternaria solani, the inhibition of growth at 300 ppm is greater than 75%.

With `CCN(C)C=Nc1cc(C)c(Cc2ccc(C(F)(F)F)c(F)c2)cc1C` [Compound 158, N-ethyl-N′-(4-(3-fluoro-4-(trifluoromethyl)benzyl)-2,5-dimethylphenyl)-N-methylformimidamide], the inhibition of growth at 300 ppm was greater than 80% with Botrytis cinerea; greater than 80% with Colletotrichum capsici; greater than 80% in the experiment with Rhizoctonia solani; greater than 75% in the experiment on Pyricularia oryzae; greater than 70% in the experiment with Septoria lycopersici; 75% in the experiment on Fusarium culmorum. For the same compound, the inhibition of growth at 300 ppm in the experiment on Alternaria solani is greater than 75%.

With `CCN(C)C=Nc1cc(F)c(Cc2ccccc2F)cc1C` [Compound 185, N-ethyl-N′-(5-fluoro-4-(2-fluorobenzyl)-2-methylphenyl)-N-methylformimidamide], the inhibition of growth at 300 ppm is greater than 80% with Botrytis cinerea; greater than 80% in the experiment on Colletotrichum capsici; greater than 80% in the experiment with Rhizoctonia solani; greater than 75% in the experiment with Pyricularia oryzae; greater than 70% in the experiment on Septoria lycopersici; 75% with Fusarium culmorum. Further, the inhibition of growth at 300 ppm in the experiment with Alternaria solani is greater than 75%.

The values above are taken from US11155517B2, “4-substituted phenylamine derivatives and their use to protect crops by fighting undesired phytopathogenic micoorganisms” (PI INDUSTRIES LTD., priority 2016, dated 2021).
